{"source": "patent US5972375A", "about": "“Polyvinyl alcohol compositions prepared by crosslinking in a freezing step” (Implico BV, priority 1992, dated 1999)", "origin": "cited, not measured here", "key": {"Rat [1]": {"system": "Rat"}, "Rat [2]": {"system": "Rat", "remark": "listed apart in the source"}}, "note": "Like-named read-outs stand apart in the source and are kept apart here.", "data": [{"smiles": "CC(C)=O", "note": "[Acetone]", "values": [{"measurement": "Oral absorption LD50", "setting": "Rat [1]; oral", "value": 9800, "unit": "mg/kg"}]}, {"smiles": "CN(C)C=O", "note": "[DMS, Dimethylformamide]", "values": [{"measurement": "Oral absorption LD50", "setting": "Rat [1]; oral", "value": 2800, "unit": "mg/kg"}]}, {"smiles": "C[S+](C)[O-]", "note": "[DMSO, dimethyl sulphoxide]", "values": [{"measurement": "Intravenous route LD50", "setting": "Dog; intravenous", "value": "2.5 g/kg of Body weight"}, {"measurement": "Oral route LD50", "setting": "Dog; oral", "value": "> 10 g/kg of Body weight"}, {"measurement": "Percutaneous route LD50", "setting": "Dog; percutaneous", "value": "> 11 g/kg of Body weight"}, {"measurement": "Intravenous route LD50", "setting": "Primate; intravenous", "value": "4 g/kg of Body weight"}, {"measurement": "Oral route LD50", "setting": "Primate; oral", "value": "> 4 g/kg of Body weight"}, {"measurement": "Percutaneous route LD50", "setting": "Primate; percutaneous", "value": "> 11 g/kg of Body weight"}, {"measurement": "Percutaneous route LD50", "setting": "Mouse", "value": "50 g/kg of Body weight"}, {"measurement": "Inhalation, non-lethal at", "setting": "Rat [2]; 24 hr", "value": 2900, "unit": "mg/m^3"}, {"measurement": "Inhalation, non-lethal at", "setting": "Rat [2]; 40 hr", "value": 2000, "unit": "mg/m^3"}, {"measurement": "Intravenous route LD50", "setting": "Rat [2]; intravenous", "value": "5.4 g/kg of Body weight"}, {"measurement": "Percutaneous route LD50", "setting": "Rat [2]; percutaneous (undiluted)", "value": "40 g/kg of Body weight"}, {"measurement": "Oral absorption LD50", "setting": "Rat [1]; oral", "value": 19700, "unit": "mg/kg"}]}, {"smiles": "CCO", "note": "[Ethanol]", "values": [{"measurement": "Oral absorption LD50", "setting": "Rat [1]; in vivo, po", "value": 7100, "unit": "mg/kg"}]}, {"smiles": "OCC(O)CO", "note": "[Glycerol]", "values": [{"measurement": "Oral absorption LD50", "setting": "Rat [1]; in vivo, po", "value": 12600, "unit": "mg/kg"}]}, {"smiles": "CN1CCCC1=O", "note": "[N-Methylpyrrolidone]", "values": [{"measurement": "Oral absorption LD50", "setting": "Rat [1]; oral", "value": 4200, "unit": "mg/kg"}]}]}
